Assays:
Conditions in all cases: primary screen
[1] = tested on: ENR+CD organoids (ISC to Paneth cell differentiation); test: Primary screen: basal (non-stimulated) lysozyme secretion LYZ.NS, 2.5-D 384-well ENR+CD organoid differentiation; format: cell-based, mouse
Description: (§1) High-throughput screening.

[2] = tested on: ENR+CD organoids (ISC to Paneth cell differentiation); test: Primary screen: CCh-stimulated lysozyme secretion LYZ.S, 2.5-D 384-well ENR+CD organoid differentiation; format: cell-based, mouse
Description: as §1

[3] = tested on: ENR+CD organoids; test: Primary screen: ATP (CellTiter-Glo 3D, CTG) cell number/viability, 2.5-D 384-well ENR+CD organoids;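 further: compounds given at plating and again on day 3 over a 6-day differentiation from ENR+CV stem-cell-enriched precursors, ATP measured on day 6, plate median as control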

Row | Structure (SMILES) | Dose.FC.LYZ.NS (log2 fold change) ([1]; dose 0.08 uM) | Z.LYZ.NS (standard z score) ([1]; dose 0.08 uM) | Dose.FC.LYZ.NS (log2 fold change) ([1]; dose 0.40 uM) | Z.LYZ.NS (standard z score) ([1]; dose 0.40 uM) | Dose.FC.LYZ.NS (log2 fold change) ([1]; dose 2.00 uM) | Z.LYZ.NS (standard z score) ([1]; dose 2.00 uM) | Dose.FC.LYZ.NS (log2 fold change) ([1]; dose 10.00 uM) | Z.LYZ.NS (standard z score) ([1]; dose 10.00 uM) | Dose.FC.LYZ.S (log2 fold change) ([2]; dose 0.08 uM) | Dose.FC.LYZ.S (log2 fold change) ([2]; dose 0.40 uM) | Dose.FC.LYZ.S (log2 fold change) ([2]; dose 2.00 uM) | Dose.FC.LYZ.S (log2 fold change) ([2]; dose 10.00 uM) | Dose.FC.CTG (log2 fold change) ([3]; dose 0.08 uM) | Z.CTG (standard z score) ([3]; dose 0.08 uM) | Dose.FC.CTG (log2 fold change) ([3]; dose 0.40 uM) | Z.CTG (standard z score) ([3]; dose 0.40 uM) | Dose.FC.CTG (log2 fold change) ([3]; dose 2.00 uM) | Z.CTG (standard z score) ([3]; dose 2.00 uM) | Dose.FC.CTG (log2 fold change) ([3]; dose 10.00 uM) | Z.CTG (standard z score) ([3]; dose 10.00 uM)
1 | C[C@@H](Oc1cc(-n2cnc3ccc(CN4CCN(C)CC4)cc32)sc1C(N)=O)c1ccccc1C(F)(F)F [GSK461364] | 0.078 | 0.682 | −0.096 | −0.834 | −0.246 | −2.138 | −0.287 | −2.498 | 0.112 | −0.093 | −0.352 | −0.390 | 0.160 | 0.383 | −0.154 | −0.368 | −0.628 | −1.500 | −0.621 | −1.484
2 | CCn1c(-c2nonc2N)nc2c(C#CC(C)(C)O)ncc(OC[C@H]3CCCNC3)c21 [GSK690693] | 0.045 | 0.388 | 0.047 | 0.409 | 0.122 | 1.060 | −0.080 | −0.698 | 0.019 | 0.155 | 0.124 | −0.153 | 0.129 | 0.308 | 0.197 | 0.470 | −0.027 | −0.064 | −0.182 | −0.434
3 | CC(C)c1noc(N2CCC(COc3ccc(-c4ccc(S(C)(=O)=O)cc4)nc3)CC2)n1 [GSK1292263] | 0.078 | 0.681 | 0.050 | 0.434 | 0.028 | 0.240 | 0.020 | 0.173 | 0.111 | 0.101 | 0.060 | 0.027 | 0.161 | 0.384 | 0.192 | 0.458 | 0.224 | 0.535 | 0.196 | 0.468
4 | CCc1cc(Nc2nccc(-c3c(-c4ccc(OC)c(C(=O)Nc5c(F)cccc5F)c4)nc4ccccn34)n2)c(OC)cc1N1CCC(N2CCN(S(C)(=O)=O)CC2)CC1 [GSK1904529A] | 0.102 | 0.890 | 0.112 | 0.977 | −0.179 | −1.557 | −0.163 | −1.419 | 0.133 | −0.047 | −0.225 | −0.276 | 0.202 | 0.484 | −0.071 | −0.170 | −0.570 | −1.361 | −0.691 | −1.649
5 | Cc1cccc(CC(=O)N2CCc3c2ccc(-c2cn(C)c4ncnc(N)c24)c3F)n1 [GSK2656157] | −0.031 | −0.267 | −0.045 | −0.396 | −0.033 | −0.291 | −0.012 | −0.102 | −0.008 | 0.060 | −0.020 | 0.090 | 0.068 | 0.162 | 0.115 | 0.274 | 0.083 | 0.197 | 0.119 | 0.284
6 | CCOC(=O)CCNc1cc(N2CCc3ccccc3CC2)nc(-c2ccccn2)n1.Cl [GSK J4 HCl] | 0.058 | 0.508 | 0.050 | 0.433 | 0.018 | 0.153 | −0.001 | −0.006 | 0.086 | 0.109 | 0.041 | −0.002 | 0.124 | 0.297 | 0.099 | 0.237 | 0.002 | 0.006 | 0.233 | 0.558
7 | Cc1cc(SCc2sc(-c3ccc(C(F)(F)F)c(F)c3)nc2C)ccc1OCC(=O)O [GW0742] | 0.052 | 0.454 | 0.045 | 0.390 | 0.026 | 0.231 | −0.152 | −1.322 | 0.048 | 0.106 | 0.014 | −0.183 | −0.751 | −1.794 | −0.489 | −1.167 | −0.249 | −0.596 | −0.451 | −1.078
8 | COc1ccc(COc2ccc(Cc3cnc(N)nc3N)cc2OC)cc1 [GW2580] | 0.006 | 0.056 | 0.014 | 0.118 | −0.060 | −0.525 | −0.018 | −0.158 | −0.013 | 0.020 | −0.060 | −0.026 | −0.042 | −0.101 | −0.284 | −0.678 | 0.029 | 0.068 | −0.038 | −0.091
9 | Cl.O=C(O)Cc1cccc(OCCCN(Cc2cccc(C(F)(F)F)c2Cl)CC(c2ccccc2)c2ccccc2)c1 [GW3965 HCl] | 0.059 | 0.516 | 0.002 | 0.013 | 0.077 | 0.673 | −0.009 | −0.080 | 0.091 | 0.074 | 0.179 | −0.047 | 0.138 | 0.330 | 0.201 | 0.481 | 0.229 | 0.546 | −0.078 | −0.186
10 | CC(C)c1onc(-c2c(Cl)cccc2Cl)c1COc1ccc(/C=C/c2cccc(C(=O)O)c2)c(Cl)c1 [GW4064] | 0.170 | 1.476 | −0.022 | −0.194 | 0.022 | 0.196 | −0.059 | −0.516 | 0.028 | 0.097 | 0.000 | −0.071 | −0.134 | −0.320 | 0.140 | 0.334 | −0.145 | −0.346 | −0.157 | −0.375
11 | O=C(O)CCc1ccc(NCc2cccc(Oc3ccccc3)c2)cc1 [GW9508] | 0.075 | 0.650 | 0.019 | 0.169 | −0.011 | −0.092 | −0.040 | −0.350 | 0.067 | 0.049 | 0.000 | −0.045 | 0.063 | 0.151 | 0.174 | 0.417 | −0.001 | −0.003 | −0.059 | −0.140
